Assay results: US20170050957A1, “4-AMINO-6-(HETEROCYCLIC)PICOLINATES AND 6-AMINO-2-(HETEROCYCLIC)PYRIMIDINE-4-CARBOXYLATES AND THEIR USE AS HERBICIDES” (Dow AgroSciences LLC, priority 2013, published 2017)

Key:
Assay in all cases: Pre-emergent Test I herbicidal activity
Type in all cases: in vivo
[1] = system: sunflower (Helianthus annuus)
Description: (§1) Pre-emergent Test I Seeds of test species were planted into round plastic pots (5-inch diameter) containing sandy loam soil. After planting, all pots were sub-irrigated 16 h prior to compound application. Compounds were dissolved in a 97:3 v/v (volume/volume) mixture of acetone and dimethyl sulfoxide (DMSO) and diluted to the appropriate concentration in a final application solution containing water, acetone, isopropanol, DMSO and Agri-dex (crop oil concentrate) in a 59:23:15:1.0:1.5 v/v ratio and 0.02% w/v (weight/volume) of Triton X-155 to obtain the spray solution containing the highest application rate. The high application rate was serial diluted with the above application solution to provide delivery of the compound at rates 1/2×, 1/4× and 1/8× of the highest rate (equivalent to 4.0, 2.0, 1.0, and 0.5 kg/ha, respectively). Formulated compound (2.7 mL) was applied pipetted evenly over the soil surface followed by incorporation with water (15 mL). Following treatment, pots were returned to the greenhouse for the duration of the experiment. The greenhouse was programmed for an approximate 15 h photoperiod which was maintained at about 23-29° C. during the day and 22-28° C. during the night. Nutrients and water were added on a regular basis through surface irrigation and supplemental lighting was provided with overhead metal halide 1000-Watt lamps as necessary. Herbicidal effect ratings were obtained 14 days after treatment. All evaluations were made relative to appropriate controls on a scale of 0 to 100 where 0 represents no herbicidal effect and 100 represents plant death or lack of emergence from the soil.

[2] = system: barnyardgrass (Echinochloa crs-galli)
Description: as §1

[3] = system: giant foxtail (Setaria faberi)
Description: as §1

wild oats (Avena fatua) = system: wild oats (Avena fatua)
Description: as §1

[4] = system: ivyleaf morningglory (Ipomoea hederecea)
Description: as §1

Compound	Visual Growth Reduction (%) 14 Days After Application HELAN ([1]; 3.96 Kg ai/ha)	Visual Growth Reduction (%) 14 Days After Application, ECHCG ([2]; 3.96 Kg ai/ha)	Visual Growth Reduction (%) 14 Days After Application, SETFA ([3]; 3.96 Kg ai/ha)	Visual Growth Reduction (%) 14 Days After Application AVEFA (wild oats (Avena fatua); 3.96 Kg ai/ha)	Visual Growth Reduction (%) 14 Days After Application IPOHE ([4]; 3.96 Kg ai/ha)	Visual Growth Reduction (%) 14 Days After Application HELAN ([1]; 4 Kg ai/ha)	Visual Growth Reduction (%) 14 Days After Application, ECHCG ([2]; 4 Kg ai/ha)	Visual Growth Reduction (%) 14 Days After Application, SETFA ([3]; 4 Kg ai/ha)	Visual Growth Reduction (%) 14 Days After Application AVEFA (wild oats (Avena fatua); 4 Kg ai/ha)	Visual Growth Reduction (%) 14 Days After Application IPOHE ([4]; 4 Kg ai/ha)
COC(=O)c1nc(-c2ccc3ccn(C)c3c2)c(F)c(N)c1Cl [Compound 1.10]	G (0-29)	F (30-44)	G (0-29)	G (0-29)	G (0-29)	–	–	–	–	–
COC(=O)c1nc(-c2ccc3sccc3c2)cc(N)c1Cl [Compound 3.05]	–	–	–	–	–	F (30-44)	A (95-100)	A (95-100)	F (30-44)	A (95-100)
Nc1c(F)c(-c2cccc3cc[nH]c23)nc(C(=O)O)c1Cl [Compound 1.48]	–	–	–	–	–	C (75-84)	G (0-29)	G (0-29)	G (0-29)	D (60-74)
